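Grown in 96-well plates, cells were treated for 48 hours with each compound at five concentrations. Insufficient inhibition: endpoint recorded as highest concentration tested. The concentration for 50% growth inhibition is given as GI50.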 Active and inactive are the calls of the source. Rule as the data show it: active = GI50 up to about 1.1 µM and inactive = higher.
Key:
Assay in all cases: inhibition of tumour cell growth, NCI panel, 48 h
[1] = tested on: HCT-15
[2] = tested on: M14
[3] = tested on: HL-60
[4] = tested on: HCT-116
[5] = tested on: A549
[6] = tested on: EKVX
[7] = tested on: K562
[8] = tested on: RXF 393
[9] = tested on: MDA-MB-231
[10] = tested on: COLO 205
[11] = tested on: NCI-H522
[12] = tested on: KM12
[13] = tested on: SR
[14] = tested on: ACHN
[15] = tested on: SNB-19
[16] = tested on: MCF7
[17] = tested on: NCI-H460
[18] = tested on: PC-3
[19] = tested on: LOX IMVI
[20] = tested on: NCI-H226

Cc1cc2ccccc2n2c1nc1ccc(O)cc12
GI50 [1]: > 10 µM | GI50 [2]: > 10 µM (inactive) | GI50 [3]: > 10 µM (inactive) | GI50 [4]: > 10 µM (inactive) | GI50 [5]: > 10 µM (inactive) | GI50 [6]: > 10 µM (inactive) | GI50 [7]: > 10 µM (inactive) | GI50 [8]: > 10 µM (inactive) | GI50 [9]: > 10 µM (inactive) | GI50 [10]: > 10 µM (inactive) | GI50 [11]: 9.04 µM (inactive) | GI50 [12]: > 10 µM (inactive) | GI50 [13]: 9.73 µM (inactive) | GI50 [14]: 9.91 µM (inactive) | GI50 [15]: > 10 µM (inactive) | GI50 [16]: > 10 µM (inactive) | GI50 [17]: 5.36 µM (inactive) | GI50 [18]: > 10 µM (inactive)

Cc1cn(Cc2cccc(C3=NCCCN3)c2)c(=O)n(Cc2cccc(C3=NCCCN3)c2)c1=O
GI50 [1]: > 100 µM | GI50 [2]: > 100 µM (inactive) | GI50 [3]: > 100 µM (inactive) | GI50 [4]: > 100 µM (inactive) | GI50 [5]: > 100 µM (inactive) | GI50 [6]: > 100 µM (inactive) | GI50 [7]: > 100 µM (inactive) | GI50 [19]: > 100 µM (inactive) | GI50 [9]: > 100 µM (inactive) | GI50 [10]: > 100 µM (inactive) | GI50 [11]: > 100 µM (inactive) | GI50 [12]: > 100 µM (inactive) | GI50 [13]: > 100 µM (inactive) | GI50 [14]: > 100 µM (inactive) | GI50 [15]: > 100 µM (inactive) | GI50 [16]: > 100 µM (inactive) | GI50 [17]: > 100 µM (inactive) | GI50 [18]: > 100 µM (inactive)

O=C1C=CC(=O)c2c1ccc1c3ccccc3n(Cc3ccccc3)c21
GI50 [1]: 21.9 µM | GI50 [2]: 18 µM (inactive) | GI50 [4]: 19.1 µM (inactive) | GI50 [5]: > 100 µM (inactive) | GI50 [6]: > 64.9 µM (inactive) | GI50 [7]: 2.84 µM (inactive) | GI50 [19]: 20 µM (inactive) | GI50 [8]: 16.8 µM (inactive) | GI50 [9]: 20.3 µM (inactive) | GI50 [10]: 18.9 µM (inactive) | GI50 [11]: 14.3 µM (inactive) | GI50 [12]: > 57.5 µM (inactive) | GI50 [20]: 7.29 µM (inactive) | GI50 [13]: 10.9 µM (inactive) | GI50 [14]: 18.2 µM (inactive) | GI50 [15]: > 100 µM (inactive) | GI50 [16]: 17.1 µM (inactive) | GI50 [17]: > 43.2 µM (inactive) | GI50 [18]: 21.8 µM (inactive)

O=C1CCC2(O)C3Cc4ccc(Oc5nnnn5-c5ccccc5)c5c4C2(CCN3CC2CC2)C1O5 (stereo not drawn)
GI50 [1]: 35.5 µM | GI50 [2]: 18 µM (inactive) | GI50 [4]: 43.6 µM (inactive) | GI50 [5]: > 100 µM (inactive) | GI50 [6]: > 100 µM (inactive) | GI50 [7]: 22.2 µM (inactive) | GI50 [19]: 27 µM (inactive) | GI50 [8]: 39.1 µM (inactive) | GI50 [9]: 58.6 µM (inactive) | GI50 [10]: 17.5 µM (inactive) | GI50 [11]: 23.3 µM (inactive) | GI50 [12]: > 100 µM (inactive) | GI50 [13]: 15.6 µM (inactive) | GI50 [14]: > 100 µM (inactive) | GI50 [15]: 95.7 µM (inactive) | GI50 [16]: 54 µM (inactive) | GI50 [17]: 56.5 µM (inactive) | GI50 [18]: 67 µM (inactive)

NC1CC(=O)c2csc(Cl)c21 (stereo not drawn)
GI50 [1]: 5.41 µM | GI50 [2]: 8.99 µM (inactive) | GI50 [3]: 2.72 µM (inactive) | GI50 [4]: 3.86 µM (inactive) | GI50 [5]: 17.9 µM (inactive) | GI50 [6]: 17.3 µM (inactive) | GI50 [7]: 2.74 µM (inactive) | GI50 [19]: 4 µM (inactive) | GI50 [8]: 5.78 µM (inactive) | GI50 [9]: 9.46 µM (inactive) | GI50 [10]: 5.32 µM (inactive) | GI50 [11]: 1.72 µM (inactive) | GI50 [12]: 0.736 µM (active) | GI50 [20]: 37 µM (inactive) | GI50 [14]: 5.33 µM (inactive) | GI50 [15]: 17.5 µM (inactive) | GI50 [16]: 17.5 µM (inactive) | GI50 [17]: 22.5 µM (inactive) | GI50 [18]: 10.1 µM (inactive)

CCOC(=O)c1c(N2CCOCC2)[nH]c(=O)c(C(c2ccc(N(C)C)cc2)c2c(O)c(C(=O)OCC)c(N3CCOCC3)[nH]c2=O)c1O
GI50 [1]: > 100 µM | GI50 [2]: > 100 µM (inactive) | GI50 [4]: > 100 µM (inactive) | GI50 [5]: > 100 µM (inactive) | GI50 [6]: > 100 µM (inactive) | GI50 [7]: > 100 µM (inactive) | GI50 [19]: 59 µM (inactive) | GI50 [8]: > 100 µM (inactive) | GI50 [9]: > 100 µM (inactive) | GI50 [10]: > 100 µM (inactive) | GI50 [11]: > 100 µM (inactive) | GI50 [12]: > 100 µM (inactive) | GI50 [20]: > 100 µM (inactive) | GI50 [13]: > 100 µM (inactive) | GI50 [14]: > 100 µM (inactive) | GI50 [15]: > 100 µM (inactive) | GI50 [16]: > 100 µM (inactive) | GI50 [17]: > 100 µM (inactive) | GI50 [18]: > 100 µM (inactive)

CCCN(CCCc1ccccc1)CCc1ccc2[nH]c(=S)[nH]c2c1
GI50 [1]: 25.8 µM | GI50 [2]: 16.7 µM (inactive) | GI50 [4]: 13.1 µM (inactive) | GI50 [5]: 34 µM (inactive) | GI50 [6]: 58.9 µM (inactive) | GI50 [7]: 2.02 µM (inactive) | GI50 [19]: 31.3 µM (inactive) | GI50 [8]: 11.2 µM (inactive) | GI50 [9]: 14.7 µM (inactive) | GI50 [10]: 16.8 µM (inactive) | GI50 [12]: 26.1 µM (inactive) | GI50 [20]: 66.5 µM (inactive) | GI50 [13]: 2.89 µM (inactive) | GI50 [14]: 29.2 µM (inactive) | GI50 [15]: 26.1 µM (inactive) | GI50 [16]: 28.2 µM (inactive) | GI50 [17]: 13.2 µM (inactive) | GI50 [18]: 41.6 µM (inactive)

O=C1/C(=C/c2ccccc2)CCc2ccccc21
GI50 [1]: 25.6 µM | GI50 [2]: 20.1 µM (inactive) | GI50 [3]: 16.9 µM (inactive) | GI50 [4]: 15.1 µM (inactive) | GI50 [5]: 22.7 µM (inactive) | GI50 [6]: 17.8 µM (inactive) | GI50 [7]: 6.97 µM (inactive) | GI50 [19]: 16.8 µM (inactive) | GI50 [8]: 15.2 µM (inactive) | GI50 [9]: 26.2 µM (inactive) | GI50 [10]: 19.6 µM (inactive) | GI50 [12]: 18 µM (inactive) | GI50 [20]: 18.3 µM (inactive) | GI50 [13]: 9.71 µM (inactive) | GI50 [14]: 17.2 µM (inactive) | GI50 [15]: 10.4 µM (inactive) | GI50 [16]: 5.15 µM (inactive) | GI50 [17]: 26.1 µM (inactive) | GI50 [18]: 19 µM (inactive)

— ChEMBL document CHEMBL1201862, “PubChem BioAssay data set” (2004)
